Source: patent US5859026A, “Quinoline carboxylic acid” (priority 1995, dated 1999)
Converted amounts (≈) assume the structure as drawn.

Assays:
A. calcoaceticus HNR904 = test: Antibacterial activity (MIC), clinically isolated strain; assay type: cell-based; conditions: Acinetobacter calcoaceticus; clinical isolate A. calcoaceticus HNR904, Gram -, 10^6 viable cells per ml; read-out: minimum inhibitory concentration (MIC)
Excerpt: (§1) 1. Antibacterial spectrum against standard strains and clinically isolated strains

A. calcoaceticus HNR916 = test: as above; assay type: cell-based; conditions: Acinetobacter calcoaceticus; clinical isolate A. calcoaceticus HNR916, Gram -, 10^6 viable cells per ml; read-out: minimum inhibitory concentration (MIC)
Excerpt: as §1

A. calcoaceticus HNR939 = test: as above; assay type: cell-based; conditions: Acinetobacter calcoaceticus; clinical isolate A. calcoaceticus HNR939, Gram -, 10^6 viable cells per ml; read-out: minimum inhibitory concentration (MIC)
Excerpt: as §1

E. cloacae HNR1939 = test: as above; assay type: cell-based; conditions: Enterobacter cloacae; clinical isolate E. cloacae HNR1939, Gram -, 10^6 viable cells per ml; read-out: minimum inhibitory concentration (MIC)
Excerpt: as §1

E. cloacae HNR1941 = test: as above; assay type: cell-based; conditions: Enterobacter cloacae; clinical isolate E. cloacae HNR1941, Gram -, 10^6 viable cells per ml; read-out: minimum inhibitory concentration (MIC)
Excerpt: as §1

E. cloacae HNR1946 = test: as above; assay type: cell-based; conditions: Enterobacter cloacae; clinical isolate E. cloacae HNR1946, Gram -, 10^6 viable cells per ml; read-out: minimum inhibitory concentration (MIC)
Excerpt: as §1

E. faecalis HPC948 = test: as above; assay type: cell-based; conditions: Enterococcus faecalis; clinical isolate E. faecalis HPC948, Gram +, 10^6 viable cells per ml; read-out: minimum inhibitory concentration (MIC)
Excerpt: as §1

E. faecalis HPC975 = test: as above; assay type: cell-based; conditions: Enterococcus faecalis; clinical isolate E. faecalis HPC975, Gram +, 10^6 viable cells per ml; read-out: minimum inhibitory concentration (MIC)
Excerpt: as §1

E. faecalis HPC984 = test: as above; assay type: cell-based; conditions: Enterococcus faecalis; clinical isolate E. faecalis HPC984, Gram +, 10^6 viable cells per ml; read-out: minimum inhibitory concentration (MIC)
Excerpt: as §1

K. pneumoniae HNR828 = test: as above; assay type: cell-based; conditions: Klebsiella pneumoniae; clinical isolate K. pneumoniae HNR828, Gram -, 10^6 viable cells per ml; read-out: minimum inhibitory concentration (MIC)
Excerpt: as §1

K. pneumoniae HNR858 = test: as above; assay type: cell-based; conditions: Klebsiella pneumoniae; clinical isolate K. pneumoniae HNR858, Gram -, 10^6 viable cells per ml; read-out: minimum inhibitory concentration (MIC)
Excerpt: as §1

K. pneumoniae HNR869 = test: as above; assay type: cell-based; conditions: Klebsiella pneumoniae; clinical isolate K. pneumoniae HNR869, Gram -, 10^6 viable cells per ml; read-out: minimum inhibitory concentration (MIC)
Excerpt: as §1

S. aureus HPC308 = test: as above; assay type: cell-based; conditions: Staphylococcus aureus; clinical isolate S. aureus HPC308, Gram +, 10^6 viable cells per ml; read-out: minimum inhibitory concentration (MIC)
Excerpt: as §1

S. aureus HPC527 = test: as above; assay type: cell-based; conditions: Staphylococcus aureus; clinical isolate S. aureus HPC527, Gram +, 10^6 viable cells per ml; read-out: minimum inhibitory concentration (MIC)
Excerpt: as §1

S. aureusHPC292 = test: as above; assay type: cell-based; conditions: Staphylococcus aureus, read-out: minimum inhibitory concentration (MIC)
Excerpt: as §1

S. marcescens HNR1544 = test: as above; assay type: cell-based; conditions: Serratia marcescens; clinical isolate S. marcescens HNR1544, Gram -, 10^6 viable cells per ml; read-out: minimum inhibitory concentration (MIC)
Excerpt: as §1

S. marcescens HNR1767 = test: as above; assay type: cell-based; conditions: Serratia marcescens; clinical isolate S. marcescens HNR1767, Gram -, 10^6 viable cells per ml; read-out: minimum inhibitory concentration (MIC)
Excerpt: as §1

S. marcescens HNR1792 = test: as above; assay type: cell-based; conditions: Serratia marcescens; clinical isolate S. marcescens HNR1792, Gram -, 10^6 viable cells per ml; read-out: minimum inhibitory concentration (MIC)
Excerpt: as §1

Male Hartley guinea pigs = test: Phototoxicity; assay type: in vivo, guinea pig; conditions: 10 mg/kg intravenous, UV exposure 90 minutes, observed 24 hours after irradiation; animals with erythemas/animals tested
Method: Male Hartley guinea pigs were intravenously administered with test compounds at a dose of 10 mg/kg, and then immediately exposed to WVA on their backs for 90 minutes. Erythemas on the UV irradiated skin were observed 24 hours after the irradiation.

male ICR mice = test: Induction of convulsions, intraperitoneal (i.p.) administration; assay type: in vivo, mouse; conditions: 100 mg/kg i.p., 30 minutes after oral fenbufen 100 mg/kg
Excerpt: 4. The induction of convulsions
1) Intraperitoneal (i.p.) administration

Male Wistar rats = test: Induction of convulsions, intracerebroventricular (i.c.v.) administration; assay type: in vivo, rat; conditions: 30 minutes after i.p. fenbufen 50 mg/kg, observed at least 4 hours
Method: 2) Intracerebroventricular (i.c.v.) administration
Male Wistar rats (weighing 180-220 g) were anesthetized with sodium pentobarbital at 45 mg/kg, i.p., and then the head of the rat was fixed in a stereotaxic apparatus. A stainless steel guide cannula for intracerebroventricular injectionin in 0.6 mm diameter was implanted as a guide cannula so as to be positioned at 1.5 mm above the left lateral cerebroventricle (A:6.2,R:1.0,H:+1.0) according to the brain atlas of De Groot (1959). The guide cannula was fixed by using a dental cement, and then closed with a stainless steel stylet in 0.3 mm diameter. Potassium penicillin G (10,000 units) were subcutaneously administered to prevent an infection. The rats were subjected to the experiments after recovery time for several days from the surgery.
For the measurement of the induction of convulsions, 50 mg/kg of fenbufen was intraperitoneally administered, and then the test compound was intracerebroventricularly administered after 30 minutes from the administration of fenbufen by means of a stainless steel cannula in 0.3 mm diameter that was connected with a polyethylene catheter and adjusted so as to be 1.5 mm longer than the guide cannula for an administration at an accurate position of cerebroventricle (H:+1.0). […] After the completion of the above experiment, the administered positions were confirmed by intraventricularly injecting 10 μl of 1% Evans blue to each of the rats, and followed by sectioning the brains.

[1] = animals with convulsions/animals tested

Cc1c(N2CCNCC2)c(F)c(N)c2c(=O)c(C(=O)O)cn(C3CC3)c12 [Reference Compound B, 5-amino-1-cyclopropyl-6-fluoro-1,4-dihydro-8-methyl-4-oxo-7-piperazinylquinoline-3-carboxylic acid, reference compound] was tested, and the MIC (A. calcoaceticus HNR904) was 50 µg/mL (≈ 139 µM), the MIC (A. calcoaceticus HNR916) was 0.1 µg/mL (≈ 0.277 µM) and the MIC (A. calcoaceticus HNR939) was 3.13 µg/mL (≈ 8.69 µM). For the same compound, the MIC (E. cloacae HNR1939) was 0.78 µg/mL (≈ 2.16 µM), the MIC (E. cloacae HNR1941) was 25 µg/mL (≈ 69.4 µM) and the MIC (E. cloacae HNR1946) was 0.78 µg/mL (≈ 2.16 µM). For the same compound, the MIC (E. faecalis HPC948) was 6.25 µg/mL (≈ 17.3 µM), the MIC (E. faecalis HPC975) was 12.5 µg/mL (≈ 34.7 µM) and the MIC (E. faecalis HPC984) was 0.39 µg/mL (≈ 1.08 µM). The MIC (K. pneumoniae HNR828) was 12.5 µg/mL (≈ 34.7 µM), the MIC (K. pneumoniae HNR858) was 0.78 µg/mL (≈ 2.16 µM) and the MIC (K. pneumoniae HNR869) was 6.25 µg/mL (≈ 17.3 µM). The MIC (S. aureus HPC308) was 6.25 µg/mL (≈ 17.3 µM), the MIC (S. aureus HPC527) was 0.1 µg/mL (≈ 0.277 µM) and the MIC (S. aureusHPC292) was 25 µg/mL (≈ 69.4 µM). For the same compound, the MIC (S. marcescens HNR1544) was 0.1 µg/mL (≈ 0.277 µM), the MIC (S. marcescens HNR1767) was 50 µg/mL (≈ 139 µM) and the MIC (S. marcescens HNR1792) was 6.25 µg/mL (≈ 17.3 µM). For the same compound, the “Phototoxicity (number of guinea pigs with erythemas)” value (Male Hartley guinea pigs) was 0/5, the “Induction of convulsions, i.p. (in words)” value (male ICR mice) was “inducing actions of convulsions were not noticeable” and the “sedative symptoms considered as precursory symptoms of convulsions, i.p.” value (male ICR mice) was “All of the animals exhibited sedative symptoms”. The “Induction of convulsion, i.p. (number of mice with convulsions)” value (male ICR mice; [1]) was 0/6, the “sedative symptoms considered as precursory symptoms of convulsions, i.p.” value (male ICR mice; listed as reference compound B) was “all of the animals exhibited sedative symptoms” and the “Induction of convulsions, i.c.v. (in words)” value (Male Wistar rats) was “convulsions were observed in all of the animals (each three animals)”. The “Induction of convulsion, i.c.v. (number of rats with convulsions)” value (Male Wistar rats; [1]) was 3/3.
